Ki and melting point data for 8 compounds are collected here from US7585873B2, “1-(aminoalkyl)-3-sulfonylazaindoles as 5-hydroxytryptamine-6 ligands” (Wyeth, priority 2002, dated 2009).

Series [1] has as its target T1, human cloned 5-HT6 receptors (Homo sapiens, UniProt P50406).
T1 construct: expressed in transfected cells; host or cells: Hela cells
Put plainly: 5-HT6 binding affinity, [3H]-LSD displacement on membranes of Hela cells expressing human cloned 5-HT6 receptors. Particulars: [3H]-LSD 3.0 nM, Hela cell membranes, 120 min at room temperature; read-out: 5-HT6 Binding Ki.

T1 sequence (P50406 whole entry): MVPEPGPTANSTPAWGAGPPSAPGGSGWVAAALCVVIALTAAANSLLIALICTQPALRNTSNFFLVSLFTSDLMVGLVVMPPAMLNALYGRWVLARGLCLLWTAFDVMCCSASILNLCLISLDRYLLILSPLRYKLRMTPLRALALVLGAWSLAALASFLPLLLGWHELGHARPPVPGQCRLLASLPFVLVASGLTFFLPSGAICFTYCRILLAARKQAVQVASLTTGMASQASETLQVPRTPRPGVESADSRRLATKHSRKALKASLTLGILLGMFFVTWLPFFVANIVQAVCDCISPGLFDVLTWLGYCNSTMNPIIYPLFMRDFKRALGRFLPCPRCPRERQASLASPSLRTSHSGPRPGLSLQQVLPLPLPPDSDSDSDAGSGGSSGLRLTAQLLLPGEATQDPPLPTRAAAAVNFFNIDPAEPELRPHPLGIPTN

A word on the Ki: it is the equilibrium dissociation constant of an inhibitor or competing ligand from its target. A word on the melting point: it is the temperature of the solid-liquid transition. The compound `CN(C)CCn1cc(S(=O)(=O)c2ccccc2)c2nc(Cl)ccc21` [Example 81] displayed a melting point of 244 to 246 °C. The Ki in series [1] stood at 214 nM.

Compound `O=S(=O)(c1cn(CCNCc2ccccc2)c2ncccc12)c1c(Cl)nc2sccn12` [Example 61] registered a melting point of 173 to 175 °C. Further, the Ki in series [1] amounted to 9 nM.

In turn, `CNCCn1cc(S(=O)(=O)c2c(Cl)nc3sccn23)c2cccnc21` [Example 58] had a melting point of 182 to 186 °C. The Ki in series [1] was determined as 1 nM.

In turn, `Cc1c(S(=O)(=O)c2ccc3ccccc3c2)c2cccnc2n1CCN(C)C` [Example 45] yielded a melting point of 238 to 240 °C. Moreover, in series [1], the Ki came to 10 nM.

`COc1ccc2c(n1)c(S(=O)(=O)c1cccc(F)c1)cn2CCN(C)C` [Example 79] gave a melting point of 208 to 212 °C. Moreover, the Ki in series [1] stood at 11 nM.

`O=S(=O)(c1cn(CCN(Cc2ccccc2)Cc2ccccc2)c2ncccc12)c1c(Cl)nc2sccn12` [Example 39] gave a melting point of 140 to 145 °C. The Ki in series [1] turned out to be 212 nM.

`COc1ccc2c(n1)c(S(=O)(=O)c1ccc(Br)cc1)cn2CCN(C)C` [Example 78] came in with a melting point of 225 to 226 °C. Besides, the Ki in series [1] amounted to 4 nM.

`CN(C)CCn1cc(S(=O)(=O)c2ccccc2)c2ccc(Br)nc21` [Example 41] gave a melting point of 182 to 184 °C. Moreover, in series [1], the Ki stood at 41 nM.
